This note sets out measurements from publication PMC13280021, “Collateral hypersensitivity between ZY19489 and piperaquine neutralizes PfCRT-mediated drug efflux and Plasmodium falciparum resistance” (Nature Communications, 2025).

For experiment [1], the system named is T1, Plasmodium falciparum Dd2^Dd2crt.
T1 construct: Dd2
As to the kind of experiment: microbe, parasite or virus in culture. Details: species or system P. falciparum in human red blood cells; asexual blood stage growth inhibition, flow cytometry with SYBR Green I and MitoTracker Deep Red. Particulars: DD2, Erythrocyte, 72 h. How it is done: Susceptibility to all drugs tested in this study was measured by incubating asynchronous, ABS parasites plated at 0.2% to 0.3% parasitemia (or 0.8% for the poorly growing ZY19489-resistant lines harboring the pfcrt N246H allele) and 1% hematocrit at 37 °C in 96-well plates. The assays were set up across a range of drug concentrations with two-fold dilutions. For the experiments testing for susceptibility of recrudescent parasite lines that emerged in humanized NSG mice to ZY19489, M5717, MMV693183, or ferroquine, parasites were cultured at 2% hematocrit in human O^+ or A^+ RBCs in RPMI-1640 media, supplemented with 25 mM HEPES (Fisher), 50 mg/L hypoxanthine (Sigma Aldrich), 2 mM L-glutamine (Cambridge Isotope Laboratories, Inc.), 0.21% sodium bicarbonate (Sigma Aldrich), 0.5% (w/v) Albumax (Invitrogen), 8% filtered, heat-inactivated, pooled off-the-clot AB^+ human serum (Interstate Blood Bank or New York Blood Center), and 10 μg/mL gentamicin (Fisher). The parental P. falciparum Pf3D7^0087/N9 strain that has been adapted to proliferate in this humanized NSG mouse model was cultured in parallel as the drug-sensitive control strain. All compound susceptibility assays for the recrudescent lines and parental control strain were performed using 8% serum-containing medium. Parasite growth in each well was assessed after 72 h using flow cytometry of cultures stained with SYBR Green I and MitoTracker Deep Red (Supplementary Fig. S12). IC50 and IC90 values were derived from growth inhibition data using nonlinear regression analysis (GraphPad Prism 7) or linear interpolation (assays for recrudescent lines from humanized mice). Unless otherwise stated, assays were performed on four independent occasions with technical duplicates, and statistical comparisons were made using two-tailed Mann–Whitney U tests. Gated RBCs 97.0% Live parasites 3.80% A B Forward scatter (FSC-H) MitoTracker Deep Red Supplementary Fig. 12: Gating strategy for flow cytometry-based quantification of P. falciparum asexual blood stage parasite proliferation in drug susceptibility and growth rate assays. Intra-erythrocytic parasites were seeded at 0.3% - 0.8% parasitemia and 1% hematocrit for 72 hours in the presence of a range of drug concentrations that had been 2-fold serially diluted in duplicates along with drug-free controls. Cells were then labeled with 1× SYBR Green (Invitrogen) and 100 nM MitoTracker Deep Red FM (Invitrogen) as nuclear stain and vital dyes, respectively. Parasite survival was assessed by flow cytometry on an Intellicyt iQue3 (Essen Bioscience). Between 9,000 and 15,000 events were counted per sample. […] (A) Forward (FSC-H) and side scatter (SSC-H) gating of the total red blood cell (RBC) population, representing 97.0% of the total events counted. (B) Gating strategy used to quantify viable intracellular parasites, which are positively stained by both MitoTracker Deep Red and SYBR Green I and appear as events in the upper right gate (live parasites, 3.80% parasitemia). Uninfected erythrocytes appear in the lower left gate as MitoTracker Deep Red and SYBR Green I negative populations.

In experiment [2] the target is T2, P. falciparum chloroquine resistance transporter (PfCRT), 7G8 isoform (Plasmodium falciparum, UniProt W7FI62).
T2 construct: gene CRT; purified PfCRT 7G8 reconstituted in proteoliposomes
T2 sequence (W7FI62 whole entry, canonical isoform): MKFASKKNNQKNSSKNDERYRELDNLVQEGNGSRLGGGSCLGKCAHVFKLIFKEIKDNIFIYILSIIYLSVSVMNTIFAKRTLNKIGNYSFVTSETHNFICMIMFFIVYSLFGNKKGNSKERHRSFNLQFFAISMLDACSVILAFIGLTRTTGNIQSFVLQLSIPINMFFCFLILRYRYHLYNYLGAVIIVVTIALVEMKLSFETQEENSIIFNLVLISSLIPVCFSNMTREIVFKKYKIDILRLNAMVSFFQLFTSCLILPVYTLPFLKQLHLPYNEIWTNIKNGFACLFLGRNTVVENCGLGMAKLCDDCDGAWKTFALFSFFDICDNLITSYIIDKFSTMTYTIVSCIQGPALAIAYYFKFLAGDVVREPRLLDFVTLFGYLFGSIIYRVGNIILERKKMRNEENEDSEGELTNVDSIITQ
As to the kind of experiment: […] [3H]CQ uptake in PfCRT proteoliposomes. The format is biochemical.

Experiment [3] relates to T3, Plasmodium falciparum TAD_022.
T3 construct: 3D7^0087/N9 (TAD_022)
The experiment can be described thus: microbe, parasite or virus in culture. Details: species or system P. falciparum 3D7^0087/N9 in human red blood cells; asexual blood stage growth inhibition in 8% human serum medium, flow cytometry. As to conditions: Erythrocyte, 72 h; for IC50: read-out: IC50 ± SEM (nM); for IC90: read-out: IC90 ± SEM (nM). The protocol:
Susceptibility to all drugs tested in this study was measured by incubating asynchronous, ABS parasites plated at 0.2% to 0.3% parasitemia (or 0.8% for the poorly growing ZY19489-resistant lines harboring the pfcrt N246H allele) and 1% hematocrit at 37 °C in 96-well plates. The assays were set up across a range of drug concentrations with two-fold dilutions. For the experiments testing for susceptibility of recrudescent parasite lines that emerged in humanized NSG mice to ZY19489, M5717, MMV693183, or ferroquine, parasites were cultured at 2% hematocrit in human O^+ or A^+ RBCs in RPMI-1640 media, supplemented with 25 mM HEPES (Fisher), 50 mg/L hypoxanthine (Sigma Aldrich), 2 mM L-glutamine (Cambridge Isotope Laboratories, Inc.), 0.21% sodium bicarbonate (Sigma Aldrich), 0.5% (w/v) Albumax (Invitrogen), 8% filtered, heat-inactivated, pooled off-the-clot AB^+ human serum (Interstate Blood Bank or New York Blood Center), and 10 μg/mL gentamicin (Fisher). The parental P. falciparum Pf3D7^0087/N9 strain that has been adapted to proliferate in this humanized NSG mouse model was cultured in parallel as the drug-sensitive control strain. All compound susceptibility assays for the recrudescent lines and parental control strain were performed using 8% serum-containing medium. Parasite growth in each well was assessed after 72 h using flow cytometry of cultures stained with SYBR Green I and MitoTracker Deep Red (Supplementary Fig. S12). IC50 and IC90 values were derived from growth inhibition data using nonlinear regression analysis (GraphPad Prism 7) or linear interpolation (assays for recrudescent lines from humanized mice). Unless otherwise stated, assays were performed on four independent occasions with technical duplicates, and statistical comparisons were made using two-tailed Mann–Whitney U tests. To assess potential cross-resistance between M5717 and ZY19489, we tested three M5717-resistant lines (TAD_470, TAD_462, and TAD_464), which harbored distinct PfeEF2 mutations (I183M, P754S, and I182T, respectively), for susceptibility to ZY19489.

Experiment [4] addresses T4, P. falciparum chloroquine resistance transporter (PfCRT), 7G8 + F145I isoform (Plasmodium falciparum, UniProt W7FI62, F145I).
T4 construct: gene CRT; purified PfCRT 7G8 + F145I reconstituted in proteoliposomes
The experiment can be described thus: […] [3H]PPQ uptake in PfCRT proteoliposomes. The format is biochemical.

The target of experiment [5] is T4, P. falciparum chloroquine resistance transporter (PfCRT), 7G8 + F145I isoform. As to the kind of experiment: inhibition of [3H]PPQ uptake in PfCRT proteoliposomes. It is filed as biochemical. As to conditions: read-out: % inhibition of [3H]PPQ transport at 1 μM.

Molecules are shown by their SMILES. Where two headings read alike, the source gives them in different places.

T4 sequence (W7FI62 whole entry F145I, canonical isoform): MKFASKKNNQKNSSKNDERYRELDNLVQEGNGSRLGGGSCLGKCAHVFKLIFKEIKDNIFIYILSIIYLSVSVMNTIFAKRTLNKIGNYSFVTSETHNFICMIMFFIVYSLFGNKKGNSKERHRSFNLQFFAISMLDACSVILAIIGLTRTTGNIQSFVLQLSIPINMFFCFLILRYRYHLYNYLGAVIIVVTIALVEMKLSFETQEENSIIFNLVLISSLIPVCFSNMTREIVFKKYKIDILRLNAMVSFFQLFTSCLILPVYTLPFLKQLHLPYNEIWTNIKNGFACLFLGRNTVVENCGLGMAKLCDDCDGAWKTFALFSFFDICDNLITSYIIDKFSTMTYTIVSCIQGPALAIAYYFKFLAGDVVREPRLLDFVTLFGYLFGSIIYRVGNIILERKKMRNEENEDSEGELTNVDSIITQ

With `O=C1C(O)=C([C@H]2CC[C@H](c3ccc(Cl)cc3)CC2)C(=O)c2ccccc21` [ATQ, atovaquone], the IC50 in experiment [1] (read-out: ATQ IC50) amounted to 2.5 ± 0.4 nM. The IC90 in experiment [1] (read-out: ATQ IC90) worked out at 5.3 ± 0.7 nM.

As for `CCN(CC)CCCC(C)Nc1ccnc2cc(Cl)ccc12` (stereo not drawn) [CQ, chloroquine], the “100 nM [3H]CQ uptake in PfCRT proteoliposomes” value in experiment [2] was “[^3H]CQ transport by the CQ-resistant 7G8 isoform”. Besides, the figures for the IC50 in experiment [1] (read-out: CQ IC50) and in experiment [1] (read-out: IC50 (nM)) were 104 ± 5.7 nM and 94.6 ± 6.6 nM, respectively. Also, the figures for the IC90 in experiment [1] (read-out: CQ IC90) and in experiment [1] (read-out: IC90 (nM)) were 217 ± 11.3 nM and 177 ± 24.1 nM, respectively.

`CCNCc1cc(Nc2ccnc3cc(Cl)ccc23)ccc1O` [DEAQ, mono-desethylamodiaquine]: the IC50 in experiment [1] (read-out: DEAQ IC50) turned out to be 43.8 ± 5.9 nM. The IC90 in experiment [1] (read-out: DEAQ IC90) was 78.7 ± 8.8 nM.

On to `C[C@H]1[C@@H](O)O[C@@H]2O[C@@]3(C)CC[C@H]4[C@H](C)CC[C@@H]1[C@@]24OO3` [DHA, dihydroartemisinin], for which the IC50 in experiment [1] (read-out: DHA IC50) amounted to 2.6 ± 0.2 nM. Further, the IC90 in experiment [1] (read-out: DHA IC90) came out at 4.7 ± 0.6 nM.

As for `CCCCN(CCCC)CC(O)c1cc(Cl)cc2c1-c1ccc(Cl)cc1/C2=C/c1ccc(Cl)cc1` (stereo not drawn) [LMF, lumefantrine], the 50% inhibitory concentration (IC50) in experiment [1] (read-out: LMF IC50) is 6 ± 1.2 nM. In addition, the concentration for an effect of 90% (IC90) in experiment [1] (read-out: LMF IC90) worked out at 11.2 ± 1.8 nM.

With `O=C(NCCN1CCCC1)c1cc(-c2ccc(CN3CCOCC3)cc2)nc2ccc(F)cc12` [M5717], in experiment [3], the IC50 was found to be 0.4 ± 0.01 nM and the IC90 amounted to 0.8 ± 0.1 nM.

Regarding `COc1ccc(C2=N[C@@H](c3ccc(Cl)cc3)[C@@H](c3ccc(Cl)cc3)N2C(=O)N2CCNC(=O)C2)c(OC(C)C)c1` [Nutlin-3], the concentration for half-maximal inhibition (IC50) in experiment [1] (read-out: IC50 (nM)) is 5660 ± 511 nM. Moreover, the 90% effect concentration (IC90) in experiment [1] (read-out: IC90 (nM)) worked out at 9130 ± 714 nM.

With `Clc1ccc2c(N3CCN(CCCN4CCN(c5ccnc6cc(Cl)ccc56)CC4)CC3)ccnc2c1` [PPQ, piperaquine], the “100 nM [3H]PPQ uptake in PfCRT proteoliposomes” value in experiment [4] was “interference was also observed against [^3H]PPQ transport by the PPQ-resistant isoform 7G8 + F145I”. Moreover, the IC50 in experiment [1] (read-out: PPQ IC50) stood at 12 ± 1 nM. Further, in experiment [1] (read-out: PPQ IC90), the IC90 amounted to 22.3 ± 4.6 nM.

Regarding `O=C1CCC(N2C(=O)c3ccccc3C2=O)C(=O)N1` (stereo not drawn) [Thalidomide], the half-inhibitory concentration (IC50) in experiment [1] (read-out: IC50 (nM)) worked out at 85200 ± 5060 nM. In addition, the IC90 in experiment [1] (read-out: IC90 (nM)) worked out at 115700 ± 1110 nM.

Turning to `Cc1nc(Nc2ncc(N3CCN(C)[C@H](C)C3)c(Nc3cc(C)n(C)n3)n2)cc(C2CC2)c1F` [ZY19489], in experiment [3], the IC50 came to 7.2 ± 0.9 nM and the IC90 is 17.1 ± 1.1 nM. In addition, the inhibition at 1 µM in experiment [5] turned out to be 79%.

Take `COC(=O)[C@H](CCCN=C(NC(=O)OCOC(=O)Cc1ccccc1)NC(=O)OCOC(=O)Cc1ccccc1)NS(=O)(=O)c1ccc(C)cc1` [pro-TAME]: the IC50 in experiment [1] (read-out: IC50) turned out to be 58400 ± 7100 nM. The IC90 in experiment [1] (read-out: IC90) amounted to 91000 ± 11300 nM.

As usually defined, the IC50 is the concentration that inhibits the measured activity by half. By IC90 is commonly meant the concentration at which the effect reaches the 90% level. As a reminder, the inhibition is how much of the control response was suppressed.
